Experimental data: patent publication US10233188B2, “CDK2/4/6 inhibitors” (priority 2016, dated 2019)

Columns and labels:
CDK2/Cyclin E1 = CDK2/Cyclin E1 (Homo sapiens (Human), UniProt P24941); test: biochemical; settings: CDK2_Ki (nM), phosphorylated CDK2/Cyclin E1, 150 μM ATP, Morrison tight-binding fit
Procedure: The assay was initiated with the addition of ATP, following a fifteen minutes pre-incubation of enzyme and inhibitor at room temperature in the reaction mixture. The reaction was stopped after 45 minutes at room temperature by the addition of 50 μL of 80 mM EDTA, pH 7.5.

CDK6/Cyclin D1 = CDK6/Cyclin D1 (Homo sapiens (Human), UniProt Q00534); test: biochemical; settings: CDK6_Ki (nM), non-phosphorylated CDK6/Cyclin D1, 2 mM ATP, Morrison fit
Chain of CDK6/Cyclin D1 (Q00534 whole entry): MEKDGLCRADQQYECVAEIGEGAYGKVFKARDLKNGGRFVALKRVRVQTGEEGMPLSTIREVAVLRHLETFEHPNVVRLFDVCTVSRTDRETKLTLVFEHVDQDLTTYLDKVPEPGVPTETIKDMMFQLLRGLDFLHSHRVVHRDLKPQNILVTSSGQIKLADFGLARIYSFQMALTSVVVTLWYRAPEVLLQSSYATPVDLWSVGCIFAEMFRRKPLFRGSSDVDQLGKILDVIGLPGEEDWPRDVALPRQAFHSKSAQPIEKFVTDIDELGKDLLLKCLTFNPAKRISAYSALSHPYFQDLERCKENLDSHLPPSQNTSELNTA
Chain of CDK6/Cyclin D1 (P24385 whole entry partner): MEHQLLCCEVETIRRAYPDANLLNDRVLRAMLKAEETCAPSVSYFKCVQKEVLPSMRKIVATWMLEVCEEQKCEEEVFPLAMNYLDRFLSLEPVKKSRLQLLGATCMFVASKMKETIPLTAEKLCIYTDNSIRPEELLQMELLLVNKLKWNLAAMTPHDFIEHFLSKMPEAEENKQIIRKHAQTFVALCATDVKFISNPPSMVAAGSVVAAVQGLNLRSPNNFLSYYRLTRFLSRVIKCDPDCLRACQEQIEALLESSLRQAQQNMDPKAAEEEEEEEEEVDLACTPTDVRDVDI

With CCS(=O)(=O)N1CCC(Nc2ncc3cc(C)c(=O)n([C@H]4CCC[C@]4(C)O)c3n2)CC1 (single isomer, unassigned) [Example 111, (+)-2-{[1-(ethylsulfonyl)piperidin-4-yl]amino}-8-[(1R*,2R*)-2-hydroxy-2-methylcyclopentyl]-6-methylpyrido[2,3-d]pyrimidin-7(8H)-one] the Ki (CDK2/Cyclin E1) was 2.14 nM and the Ki (CDK6/Cyclin D1) was 4.9 nM.

COCCc1cc2cnc(N[C@H]3CCN(S(C)(=O)=O)C[C@@H]3F)nc2n(C2CCCC2)c1=O (single isomer, unassigned) [Example 158, (−)-8-cyclopentyl-2-{[(3S*,4S*)-3-fluoro-1-(methylsulfonyl)piperidin-4-yl]amino}-6-(2-methoxyethyl)pyrido[2,3-d]pyrimidin-7(8H)-one] gave a Ki (CDK2/Cyclin E1) of 3.89 nM and a Ki (CDK6/Cyclin D1) of 0.66 nM.

In the case of Cc1cc2cnc(NC3CCN(S(C)(=O)=O)CC3)nc2n([C@@H]2CCC[C@H]2O)c1=O [Example 173, 8-[(1R,2R)-2-hydroxycyclopentyl]-6-methyl-2-{[1-(methylsulfonyl)piperidin-4-yl]amino}pyrido[2,3-d]pyrimidin-7(8H)-one], the Ki (CDK2/Cyclin E1) is reported as 2.95 nM and the Ki (CDK6/Cyclin D1) is reported as 3.52 nM.

With CS(=O)(=O)N1CC[C@H](Nc2ncc3cc(N)c(=O)n(C4CCCC4)c3n2)[C@H](F)C1 (single isomer, unassigned; isomer b) [Example 150, 6-amino-8-cyclopentyl-2-{[(3R*,4S*)-3-fluoro-1-(methylsulfonyl)piperidin-4-yl]amino}pyrido[2,3-d]pyrimidin-7(8H)-one-Isomer B] the Ki (CDK2/Cyclin E1) was 2.63 nM and the Ki (CDK6/Cyclin D1) was 1.32 nM.

With CS(=O)(=O)N1CCC(Nc2ncc3cc(Cl)c(=O)n([C@H]4CCC[C@H](O)C4)c3n2)CC1 (single isomer, unassigned) [Example 35, (−)-6-chloro-8-[(1R*,3R*)-3-hydroxycyclohexyl]-2-{[1-(methylsulfonyl)piperidin-4-yl]amino}pyrido[2,3-d]pyrimidin-7(8H)-one] the Ki (CDK2/Cyclin E1) was 19.2 nM and the Ki (CDK6/Cyclin D1) was 7.82 nM.

CCc1cc2cnc(NC3CCN(S(C)(=O)=O)CC3)nc2n(C2CCCC2)c1=O [Example 141, 8-cyclopentyl-6-ethyl-2-{[1-(methylsulfonyl)piperidin-4-yl]amino}pyrido[2,3-d]pyrimidin-7(8H)-one] gave a Ki (CDK2/Cyclin E1) of 1.25 nM and a Ki (CDK6/Cyclin D1) of 0.37 nM.

COCCS(=O)(=O)N1CCC(Nc2ncc3cc(C)c(=O)n([C@@H]4CCC[C@@]4(C)O)c3n2)CC1 (single isomer, unassigned) [Example 114, (−)-8-[(1R*,2R*)-2-hydroxy-2-methylcyclopentyl]-2-({1-[(2-methoxyethyl)sulfonyl]piperidin-4-yl}amino)-6-methylpyrido[2,3-d]pyrimidin-7(8H)-one] was tested, and the Ki (CDK2/Cyclin E1) was 0.17 nM and the Ki (CDK6/Cyclin D1) was 0.15 nM.

For CS(=O)(=O)N1CCC(Nc2ncc3ccc(=O)n([C@H]4CC[C@H](O)C4)c3n2)CC1 (single isomer, unassigned) [Example 53, (+)-8-[(1R*,3R*)-3-hydroxycyclopentyl]-2-{[1-(methylsulfonyl)piperidin-4-yl]amino}pyrido[2,3-d]pyrimidin-7(8H)-one], the Ki (CDK2/Cyclin E1) was 1.09 nM and the Ki (CDK6/Cyclin D1) was 3.79 nM.

Cc1cc2cnc(NC3CCN(S(=O)(=O)CC(F)(F)F)CC3)nc2n([C@@H]2CCC[C@@]2(C)O)c1=O (single isomer, unassigned) [Example 118, (−)-8-[(1R*,2R*)-2-hydroxy-2-methylcyclopentyl]-6-methyl-2-({1-[(2,2,2-trifluoroethyl)sulfonyl]piperidin-4-yl}amino)pyrido[2,3-d]pyrimidin-7(8H)-one] was tested, and the Ki (CDK2/Cyclin E1) was 0.34 nM and the Ki (CDK6/Cyclin D1) was 4.36 nM.

In the case of CS(=O)(=O)N1CCC(Nc2ncc3cc(CC(=O)O)c(=O)n(C4CCCC4)c3n2)CC1 [Example 147, (8-cyclopentyl-2-{[1-(methylsulfonyl)piperidin-4-yl]amino}-7-oxo-7,8-dihydropyrido[2,3-d]pyrimidin-6-yl)acetic acid], the Ki (CDK2/Cyclin E1) is reported as 1.57 nM and the Ki (CDK6/Cyclin D1) is reported as 0.45 nM.

For COCCS(=O)(=O)N1CCC(Nc2ncc3cc(C)c(=O)n([C@H]4CCC[C@]4(C)O)c3n2)CC1 (single isomer, unassigned) [Example 115, (+)-8-[(1R*,2R*)-2-hydroxy-2-methylcyclopentyl]-2-({1-[(2-methoxyethyl)sulfonyl]piperidin-4-yl}amino)-6-methylpyrido[2,3-d]pyrimidin-7(8H)-one], the Ki (CDK2/Cyclin E1) was 2.39 nM and the Ki (CDK6/Cyclin D1) was 3.17 nM.

CS(=O)(=O)N1CCC(Nc2ncc3ccc(=O)n([C@H]4C[C@H](O)CC[C@@H]4F)c3n2)CC1 (single isomer, unassigned) [Example 217, (+)-8-[(1S*,2S*,5R*)-2-fluoro-5-hydroxycyclohexyl]-2-{[1-(methylsulfonyl)piperidin-4-yl]amino}pyrido[2,3-d]pyrimidin-7(8H)-one] was tested, and the Ki (CDK2/Cyclin E1) was 0.55 nM and the Ki (CDK6/Cyclin D1) was 2 nM.

C[C@@]1(O)CCC[C@H]1n1c(=O)c(CC(N)=O)cc2cnc(NC3CCN(S(C)(=O)=O)CC3)nc21 (single isomer, unassigned) [Example 179, (−)-2-(8-[(1R*,2R*)-2-hydroxy-2-methylcyclopentyl]-2-{[1-(methylsulfonyl)piperidin-4-yl]amino}-7-oxo-7,8-dihydropyrido[2,3-d]pyrimidin-6-yl)acetamide] showed a Ki (CDK2/Cyclin E1) of 0.38 nM and a Ki (CDK6/Cyclin D1) of 2.18 nM.

Compound C[C@@H]1[C@H](O)CC[C@H]1n1c(=O)ccc2cnc(NC3CCN(S(C)(=O)=O)CC3)nc21 (single isomer, unassigned) [Example 201, (−)-8-[(1R*,2S*,3R*)-3-hydroxy-2-methylcyclopentyl]-2-{[1-(methylsulfonyl)piperidin-4-yl]amino}pyrido[2,3-d]pyrimidin-7(8H)-one] has a Ki (CDK2/Cyclin E1) of 0.12 nM and a Ki (CDK6/Cyclin D1) of 0.85 nM.

For CC(C)S(=O)(=O)N1CCC(Nc2ncc3cc(CCO)c(=O)n(C4CCCC4)c3n2)CC1 [Example 136, 8-cyclopentyl-6-(2-hydroxyethyl)-2-{[1-(propan-2-ylsulfonyl)piperidin-4-yl]amino}pyrido[2,3-d]pyrimidin-7(8H)-one], the Ki (CDK2/Cyclin E1) was 3.14 nM and the Ki (CDK6/Cyclin D1) was 1.35 nM.

Work on CNS(=O)(=O)N1CCC(Nc2ncc3cc(C)c(=O)n([C@@H]4CCC[C@@]4(C)O)c3n2)CC1 (single isomer, unassigned) [Example 94, (−)-4-({8-[(1R*,2R*)-2-hydroxy-2-methylcyclopentyl]-6-methyl-7-oxo-7,8-dihydropyrido[2,3-d]pyrimidin-2-yl}amino)-N-methylpiperidine-1-sulfonamide] yielded a Ki (CDK2/Cyclin E1) of 0.09 nM and a Ki (CDK6/Cyclin D1) of 0.33 nM.

With CS(=O)(=O)N1CCC(Nc2ncc3cc(Cl)c(=O)n([C@@H]4CC[C@@H](O)C4)c3n2)CC1 (single isomer, unassigned) [Example 170, (−)-6-chloro-8-[(1R*,3R*)-3-hydroxycyclopentyl]-2-{[1-(methylsulfonyl)piperidin-4-yl]amino}pyrido[2,3-d]pyrimidin-7(8H)-one] the Ki (CDK2/Cyclin E1) was 6.03 nM and the Ki (CDK6/Cyclin D1) was 1.82 nM.

C[C@@]1(O)CCC[C@H]1n1c(=O)ccc2cnc(NC3CCN(S(=O)(=O)NC4CCOCC4)CC3)nc21 (single isomer, unassigned) [Example 68, (−)-4-({8-[(1R*,2R*)-2-hydroxy-2-methylcyclopentyl]-7-oxo-7,8-dihydropyrido[2,3-d]pyrimidin-2-yl}amino)-N-(tetrahydro-2H-pyran-4-yl)piperidine-1-sulfonamide] showed a Ki (CDK2/Cyclin E1) of 0.41 nM and a Ki (CDK6/Cyclin D1) of 3.23 nM.
